Measurements reported in patent publication US10576082B2, “ErbB2 regulates autophagic flux to modulate the proteostasis of APP-CTFs in alzheimer's disease” (Academia Sinica, priority 2016, dated 2020).

System: IMR32 neuroblastoma cells overexpressing C99-YFP
Assay: Western blotting of IMR32 cells overexpressing C99-YFP
Format: cell-based, human
Details: compound 1 μM, 37° C., 24 h
Experimental: (A) IMR32 cells overexpressing C99-YFP were grown with 2 ml fresh culture medium in 6-well plates, and treated with 1 μM CL-387,785 or DAPT at 37° C. for 24 h. The cell extracts were analyzed by Western blotting. (B) Conditional media were harvested and processed for determination of secreted Aβ40 using a colorimetric Aβ40-specific ELISA kit. (C) C99-YFP-expressing IMR32 cells (160,000 cells/well) were seeded onto 6-well plates and cultured at 37° C. for 24 h, and infected with ErbB1- or ErbB2-targeting shRNA lentivirus for an additional 48 h. Infection mixtures were replaced with 2 ml fresh culture medium, and infected cells were then incubated at 37° C. for an additional 24 h. The cell extracts were analyzed by Western blotting with anti-GFP antibody. (D) The conditioned media were harvested and processed for determination of secreted Aβ40. Data are the mean±SD from three independent experiments, and were analyzed by Student's t-tests. * p<0.05. […]
Preparation of cell extracts. […] Following the removal of cell debris by centrifugation, clarified lysates were processed for immunoprecipitation, Western blotting, or quantification of BCA protein content.
Western blotting analysis. Protein concentration was measured with the BCA Protein Assay Kit (Pierce). […] Quantitative analyses of blot images were processed using Image J software (NIH) to determine the relative densities of immunoreactive bands.

With `CC#CC(=O)Nc1ccc2ncnc(Nc3cccc(Br)c3)c2c1` [CL-387,785, N-[4-[(3-bromophenyl)amino]-6-quinazolinyl]-2-butynamide] as the compound, how does the “level of AICD” value read?
The value was “significantly reduced”.

And the “level of C99” value?
The value was “significantly reduced”.
